According to paper doi:10.1101/2024.03.17.584721v1 (bioRxiv, 2024):

Key:
[1] = Encapsulation efficiency of the LNPs; format: physicochemical; conditions: optimized LNP formulation, ^CRPepTAC or peptide ligand alone; Figure 4B
[2] = system: HeLa cells; assay: Confocal imaging of subcellular localization; format: cell-based, human; conditions: free fluorescein-labelled peptide without LNP, 8 hours, live cell confocal
[3] = In vivo biodistribution of LNP-encapsulated PepTACs; set-up: species or system SKH-1 hairless mice; conditions: Cy5.5-labeled, 5 mg/kg IV, confocal imaging of liver sections

LNP Encapsulation Efficiency, % [1] | Substance | uptake / subcellular localization [2] | PepTAC signal in liver sections after 24 hours [3]
15% | KDVLSEKEKKLEEYKQKLARV [CL] |  | 
 | IYP^OHAL-Ahx-KDVLSEKEKKLEEYKQKLARV [^CRPepTAC] | no uptake or cellular association | no signal
